What was measured:
[1] = Cell cycle arrest in human MCF7 cells assessed as M1 quadrant cells at 100 nM measured after 48 hrs by propidium iodide staining-based flow cytometry (reference value: 98.1%); type: functional
[2] = Cell cycle arrest in human MCF7 cells assessed as sub-diploid cells at 100 nM measured after 48 hrs by propidium iodide staining-based flow cytometry (reference value: 1.9%); type: functional
[3] = Cell cycle arrest in human MCF7 cells assessed as sub-diploid cells at 50 uM pretreated with pan-caspase inhibitor Z-VAD-FMK for 1 hr followed by compound addition measured after 48 hrs by propidium iodide staining-based flow cytometry assay (reference value: 1.9%); type: functional; parameters: scale not given: the % may be the effect or the level left
[4] = Cell cycle arrest in human MCF7 cells assessed as M1 quadrant cells at 50 uM measured after 48 hrs by propidium iodide staining-based flow cytometry (reference value: 98.1%); type: functional
[5] = Cell cycle analysis in human MCF7 cells assessed as accumulation at S phase at 50 uM measured after 16 hrs by propidium iodide staining-based flow cytometry (reference value: 13.2%); type: functional
[6] = Cell cycle analysis in human MCF7 cells assessed as accumulation at SubG1 phase at 50 uM measured after 4 hrs by propidium iodide staining-based flow cytometry (reference value: 5.6%); type: functional
MCF7 = test: Selectivity index, ratio of GI50 for human 184B5 cells to GI50 for human MCF7 cells; type: functional
[7] = Cell cycle arrest in human MCF7 cells assessed as sub-diploid cells at 50 uM measured after 48 hrs by propidium iodide staining-based flow cytometry (reference value: 1.9%); type: functional
[8] = Cell cycle analysis in human MCF7 cells assessed as accumulation at G0/G1 phase at 50 uM measured after 48 hrs by propidium iodide staining-based flow cytometry (reference value: 72.1%); type: functional
[9] = Cytotoxicity against human MCF7 cells assessed as reduction in cell viability measured after 72 hrs by MTT assay; type: functional; conditions: MCF7, 72 h
[10] = Cytotoxicity against human 184B5 cells assessed as reduction in cell viability measured after 72 hrs by MTT assay; type: toxicity, cell-based
[11] = Cell cycle analysis in human MCF7 cells assessed as accumulation at G0/G1 phase at 50 uM measured after 4 hrs by propidium iodide staining-based flow cytometry (reference value: 72.1%); type: functional
[12] = Cell cycle analysis in human MCF7 cells assessed as accumulation at S phase at 50 uM measured after 4 hrs by propidium iodide staining-based flow cytometry (reference value: 13.2%); type: functional
[13] = Cell cycle analysis in human MCF7 cells assessed as accumulation at SubG1 phase at 50 uM measured after 8 hrs by propidium iodide staining-based flow cytometry (reference value: 5.6%); type: functional
[14] = Cell cycle analysis in human MCF7 cells assessed as accumulation at G2/M phase at 50 uM measured after 24 hrs by propidium iodide staining-based flow cytometry (reference value: 8.5%); type: functional
[15] = Cell cycle analysis in human MCF7 cells assessed as accumulation at SubG1 phase at 50 uM measured after 24 hrs by propidium iodide staining-based flow cytometry (reference value: 5.6%); type: functional
[16] = Cell cycle analysis in human MCF7 cells assessed as accumulation at SubG1 phase at 50 uM measured after 48 hrs by propidium iodide staining-based flow cytometry (reference value: 5.6%); type: functional
[17] = Cytotoxicity against human PC3 cells assessed as reduction in cell viability measured after 72 hrs by MTT assay; type: functional; conditions: PC-3, 72 h
[18] = Cell cycle analysis in human MCF7 cells assessed as accumulation at SubG1 phase at 50 uM by propidium iodide staining-based flow cytometry; type: functional; conditions: TDE = time-dependent effect
[19] = Cell cycle arrest in human MCF7 cells assessed as M1 quadrant cells at 50 uM pretreated with pan-caspase inhibitor Z-VAD-FMK for 1 hr followed by compound addition measured after 48 hrs by propidium iodide staining-based flow cytometry assay (reference value: 98.1%); type: functional; parameters: scale not given: the % may be the effect or the level left
[20] = Cell cycle analysis in human MCF7 cells assessed as accumulation at G2/M phase at 50 uM measured after 48 hrs by propidium iodide staining-based flow cytometry (reference value: 8.5%); type: functional
[21] = Cell cycle analysis in human MCF7 cells assessed as accumulation at SubG1 phase at 50 uM measured after 16 hrs by propidium iodide staining-based flow cytometry (reference value: 5.6%); type: functional
[22] = Cell cycle analysis in human MCF7 cells assessed as accumulation at G2/M phase at 50 uM measured after 4 hrs by propidium iodide staining-based flow cytometry (reference value: 8.5%); type: functional
[23] = Cell cycle analysis in human MCF7 cells assessed as accumulation at G0/G1 phase at 50 uM measured after 8 hrs by propidium iodide staining-based flow cytometry (reference value: 72.1%); type: functional
[24] = Cell cycle arrest in human MCF7 cells assessed as M1 quadrant cells at 50 uM pretreated with autophagy inhibitor wortmannin for 1 hr followed by compound addition measured after 48 hrs by propidium iodide staining-based flow cytometry assay (reference value: 98.1%); type: functional; parameters: scale not given: the % may be the effect or the level left
[25] = Cell cycle arrest in human MCF7 cells assessed as sub-diploid cells at 50 uM pretreated with autophagy inhibitor wortmannin for 1 hr followed by compound addition measured after 48 hrs by propidium iodide staining-based flow cytometry assay (reference value: 1.9%); type: functional; parameters: scale not given: the % may be the effect or the level left
[26] = Cell cycle analysis in human MCF7 cells assessed as accumulation at S phase at 50 uM measured after 24 hrs by propidium iodide staining-based flow cytometry (reference value: 13.2%); type: functional
[27] = Cell cycle analysis in human MCF7 cells assessed as accumulation at G0/G1 phase at 50 uM measured after 16 hrs by propidium iodide staining-based flow cytometry (reference value: 72.1%); type: functional
[28] = Cell cycle analysis in human MCF7 cells assessed as accumulation at G0/G1 phase at 50 uM measured after 24 hrs by propidium iodide staining-based flow cytometry (reference value: 72.1%); type: functional
[29] = Cell cycle analysis in human MCF7 cells assessed as accumulation at G2/M phase at 50 uM measured after 8 hrs by propidium iodide staining-based flow cytometry (reference value: 8.5%); type: functional
[30] = Cell cycle analysis in human MCF7 cells assessed as accumulation at G2/M phase at 50 uM measured after 16 hrs by propidium iodide staining-based flow cytometry (reference value: 8.5%); type: functional
[31] = Cell cycle analysis in human MCF7 cells assessed as accumulation at S phase at 50 uM measured after 8 hrs by propidium iodide staining-based flow cytometry (reference value: 13.2%); type: functional
[32] = Cell cycle analysis in human MCF7 cells assessed as accumulation at S phase at 50 uM measured after 48 hrs by propidium iodide staining-based flow cytometry (reference value: 13.2%); type: functional

## COC[C@H]1OC(=O)c2coc3c2[C@@]1(C)C1=C(C3=O)[C@@H]2CCC(=O)[C@@]2(C)C[C@H]1OC(C)=O
[1]
  Activity: 93.8%
[2]
  Activity: 6.2%

## N#C[Se]Cc1ccc(-n2cccc2)cc1
[3]
  Activity: 18.2%
[4]
  Activity: 67.8%
[5]
  Activity: 17.6%
[6]
  Activity: 2.2%
MCF7
  RatioGI50: >41.8
[7]
  Activity: 32.2%
[8]
  Activity: 53.6%
[9]
  GI50: 2400 nM
  LC50: > 100 µM
  TGI: > 100 µM
[10]; 184B5 cells
  GI50 at 72 h: > 100 µM
[10]; 184b5, 72 h
  LC50: > 100 µM
  TGI: > 100 µM
[11]
  Activity: 59.6%
[12]
  Activity: 19.3%
[13]
  Activity: 2.9%
[14]
  Activity: 14%
[15]
  Activity: 13.1%
[16]
  Activity: 25.2%
[17]
  GI50: 59.9 µM
  LC50 (concentration lethal to 50% of cells): > 100 µM
  TGI: > 100 µM
[18]
  Activity: Tde
[19]
  Activity: 81.7%
[20]
  Activity: 10.3%
[21]
  Activity: 9.4%
[22]
  Activity: 18.7%
[23]
  Activity: 61.4%
[24]
  Activity: 69.2%
[25]
  Activity: 30.8%
[26]
  Activity: 17.2%
[27]
  Activity: 53.7%
[28]
  Activity: 55.7%
[29]
  Activity: 18.4%
[30]
  Activity: 17.2%
[31]
  Activity: 17.8%
[32]
  Activity: 9.1%

From ChEMBL document CHEMBL3871268, “Chalcogen containing heterocyclic scaffolds: New hybrids with antitumoral activity” (Eur J Med Chem, 2016)
